The target in test [1] is T1, human FAAH enzyme (Homo sapiens, UniProt O00519).
T1 sequence (O00519 1-579): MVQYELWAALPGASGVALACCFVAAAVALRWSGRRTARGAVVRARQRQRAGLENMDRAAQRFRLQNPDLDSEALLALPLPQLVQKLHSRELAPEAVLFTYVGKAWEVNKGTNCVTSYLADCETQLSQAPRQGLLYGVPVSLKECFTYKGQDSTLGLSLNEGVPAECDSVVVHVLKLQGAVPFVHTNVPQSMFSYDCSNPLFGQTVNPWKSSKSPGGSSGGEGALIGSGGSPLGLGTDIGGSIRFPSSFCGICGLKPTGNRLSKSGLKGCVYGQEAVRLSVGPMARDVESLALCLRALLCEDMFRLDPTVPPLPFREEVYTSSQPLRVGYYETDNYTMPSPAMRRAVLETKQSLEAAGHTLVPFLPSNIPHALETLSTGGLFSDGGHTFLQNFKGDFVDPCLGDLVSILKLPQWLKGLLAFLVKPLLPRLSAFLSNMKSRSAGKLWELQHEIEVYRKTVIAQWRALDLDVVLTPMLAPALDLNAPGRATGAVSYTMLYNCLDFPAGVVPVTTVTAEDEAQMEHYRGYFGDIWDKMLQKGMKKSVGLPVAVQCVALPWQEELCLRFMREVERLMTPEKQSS
The experiment in a line: Human FAAH enzyme inhibition assay. In kind it is biochemical.

For test [2], the target named is T2, Human sEH (Homo sapiens, UniProt P34913).
T2 sequence (P34913 1-555): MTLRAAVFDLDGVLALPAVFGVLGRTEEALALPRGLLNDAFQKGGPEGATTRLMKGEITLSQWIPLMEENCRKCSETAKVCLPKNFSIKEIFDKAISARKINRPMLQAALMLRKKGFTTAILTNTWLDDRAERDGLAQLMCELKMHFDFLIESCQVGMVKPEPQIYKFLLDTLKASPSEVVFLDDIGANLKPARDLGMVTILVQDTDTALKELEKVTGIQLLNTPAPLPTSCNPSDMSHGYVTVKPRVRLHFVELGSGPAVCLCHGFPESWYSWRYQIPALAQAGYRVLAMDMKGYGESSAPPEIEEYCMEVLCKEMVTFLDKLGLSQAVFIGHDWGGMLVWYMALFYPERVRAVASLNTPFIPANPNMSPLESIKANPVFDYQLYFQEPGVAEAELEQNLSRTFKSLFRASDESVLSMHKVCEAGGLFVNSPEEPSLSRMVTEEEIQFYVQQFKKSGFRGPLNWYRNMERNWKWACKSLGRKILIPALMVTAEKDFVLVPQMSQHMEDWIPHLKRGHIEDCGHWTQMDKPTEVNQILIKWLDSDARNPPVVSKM
Put plainly: Human sEH inhibition assay. In kind it is biochemical. As to conditions: sEH IC50, human sEH 1 nM, CMNPC 5 μM, pH 7.0, 30 °C.

What is called IC50 is the midpoint of a concentration-inhibition curve. A low value points to inhibition by little substance. For `CC(C)c1cc(C(C)C)c(S(=O)(=O)N2CCC(C(=O)Nc3ccc(-c4nc5ccccc5s4)cc3)CC2)c(C(C)C)c1` [Compound 4-29, N-(4-(benzo[d]thiazol-2-yl)phenyl)-1-((2,4,6-triisopropylphenyl)sulfonyl)piperidine-4-carboxamide], the IC50 turned out to be 2230 nM in test [1] and 840 nM in test [2].

In the case of `COc1ccccc1S(=O)(=O)N1CCC(C(=O)Nc2ccc(-c3nc4ccccc4s3)cc2)CC1` [Compound 4-8, N-(4-(benzo[d]thiazol-2-yl)phenyl)-1-((2-methoxyphenyl)sulfonyl)piperidine-4-carboxamide], the IC50 in test [1] is 80 nM; in test [2] it was 26 nM.

Values taken from PMC7723751 (Bioorganic chemistry, 2020).
